Experimental data: US6358885B1, “Substituted phenylheterocyclic herbicides” (Mississippi State University, priority 1992, dated 2002)

What was measured:
Test in all cases: Test G preemergence/postemergence greenhouse plant response rating 0 to 100
alfalfa = format: in vivo, Medicago ativa; details: 0 to 100 scale
Text: (§1) Seeds, rhizomes, or plant parts of alfalfa (Medicago ativa), annual bluegrass (Poa annua), bermudagrass (Cynodon dactylon), broadleaf signalgrass (Brachiaria plantaginea), common purslane (Portulaca oleracea), common ragweed (Ambrosia elatior), […] (Paspalum dilatatum), goosegrass (Eleusine indica), guineagrass (Panicum maximum), […] exaltata), johnsongrass (Sorghum halepense), large crabgrass (Digitaria sanguinalis), peanut (Arachis hypoagaea), pitted morningglory (Ipomoea lacunosa), purple nutsedge (Cyperus rotundus), sandbur (Cenchrus echinatus), smooth crabgrass (Digitaria ischaemum) and yellow nutsedge (Cyperus esculentus) were planted into greenhouse pots containing greenhouse planting medium. Each pot contained only one plant species. The test compound was dissolved in a non-phytotoxic solvent and applied preemergence and/or postemergence to the plants. Preemergence applications were made within one day of planting the seeds or plant parts. Postemergence applications were applied when the plants were in the two to four leaf stage (three to twenty cm). Test chemicals were dissolved in a non-phytotoxic solvent and applied preemergence and postemergence to the plants. Untreated control plants and treated plants were placed in the greenhouse and visually evaluated for injury at 13 to 21 days after herbicide application. […] A dash (-) response indicates no test result.

annual bluegrass = format: in vivo, Poa annua; details: 0 to 100 scale
Text: as §1

bermudagrass = format: in vivo, Cynodon dactylon; details: 0 to 100 scale
Text: as §1

broadleaf signalgrass = format: in vivo, Brachiaria plantaginea; details: 0 to 100 scale
Text: as §1

common purslane = format: in vivo, Portulaca oleracea; details: 0 to 100 scale
Text: as §1

common ragweed = format: in vivo, Ambrosia elatior; details: 0 to 100 scale
Text: as §1

dallisgrass = format: in vivo, Paspalum dilatatum; details: 0 to 100 scale
Text: as §1

goosegrass = format: in vivo, Eleusine indica; details: 0 to 100 scale
Text: as §1

guineagrass = format: in vivo, Panicum maximum; details: 0 to 100 scale
Text: as §1

itchgrass = format: in vivo, Rottboellia exaltata; details: 0 to 100 scale
Text: as §1

johnsongrass = format: in vivo, Sorghum halepense; details: 0 to 100 scale
Text: as §1

large crabgrass = format: in vivo, Digitaria sanguinalis; details: 0 to 100 scale
Text: as §1

peanut = format: in vivo, Arachis hypoagaea; details: 0 to 100 scale
Text: as §1

pitted morningglory = format: in vivo, Ipomoea lacunosa; details: 0 to 100 scale
Text: as §1

purple nutsedge = format: in vivo, Cyperus rotundus; details: Rate 125 g/ha, 0 to 100 scale
Text: as §1

smooth crabgrass = format: in vivo, Digitaria ischaemum; details: 0 to 100 scale
Text: as §1

yellow nutsedge = format: in vivo, Cyperus esculentus; details: Rate 125 g/ha, 0 to 100 scale
Text: as §1

CCS(=O)(=O)Oc1cc(-c2nn3c(c2Cl)CCCC3)c(F)cc1Cl [Compound 25]
60: Plant response rating, Cmn Purslane (common purslane; POSTEMERGENCE, Rate 250 g/ha)
100: Plant response rating, Cmn Purslane (common purslane; POSTEMERGENCE, Rate 125 g/ha)
0: Plant response rating, Alfalfa Var. (alfalfa; POSTEMERGENCE, Rate 125 g/ha) | Plant response rating, Alfalfa Var. (alfalfa; POSTEMERGENCE, Rate 250 g/ha) | Plant response rating, Alfalfa Var. (alfalfa; PREEMERGENCE, Rate 125 g/ha) | Plant response rating, Alfalfa Var. (alfalfa; PREEMERGENCE, Rate 250 g/ha) | Plant response rating, Ann Bluegrass (annual bluegrass; POSTEMERGENCE, Rate 125 g/ha) | Plant response rating, Ann Bluegrass (annual bluegrass; POSTEMERGENCE, Rate 250 g/ha) | Plant response rating, Ann Bluegrass (annual bluegrass; PREEMERGENCE, Rate 125 g/ha) | Plant response rating, Ann Bluegrass (annual bluegrass; PREEMERGENCE, Rate 250 g/ha) | Plant response rating, Bermudagrass (bermudagrass; POSTEMERGENCE, Rate 125 g/ha) | Plant response rating, Bermudagrass (bermudagrass; POSTEMERGENCE, Rate 250 g/ha) | Plant response rating, Bermudagrass (bermudagrass; PREEMERGENCE, Rate 125 g/ha) | Plant response rating, Bermudagrass (bermudagrass; PREEMERGENCE, Rate 250 g/ha) | Plant response rating, Brdlf Sgnlgrass (broadleaf signalgrass; POSTEMERGENCE, Rate 125 g/ha) | Plant response rating, Brdlf Sgnlgrass (broadleaf signalgrass; POSTEMERGENCE, Rate 250 g/ha) | Plant response rating, Brdlf Sgnlgrass (broadleaf signalgrass; PREEMERGENCE, Rate 125 g/ha) | Plant response rating, Brdlf Sgnlgrass (broadleaf signalgrass; PREEMERGENCE, Rate 250 g/ha) | Plant response rating, Cmn Purslane (common purslane; PREEMERGENCE, Rate 125 g/ha) | Plant response rating, Cmn Purslane (common purslane; PREEMERGENCE, Rate 250 g/ha) | Plant response rating, Cmn Ragweed (common ragweed; POSTEMERGENCE, Rate 250 g/ha) | Plant response rating, Cmn Ragweed (common ragweed; PREEMERGENCE, Rate 125 g/ha) | Plant response rating, Cmn Ragweed (common ragweed; PREEMERGENCE, Rate 250 g/ha) | Plant response rating, Dallisgrass (dallisgrass; POSTEMERGENCE, Rate 125 g/ha) | Plant response rating, Dallisgrass (dallisgrass; POSTEMERGENCE, Rate 250 g/ha) | Plant response rating, Dallisgrass (dallisgrass; PREEMERGENCE, Rate 125 g/ha) | Plant response rating, Dallisgrass (dallisgrass; PREEMERGENCE, Rate 250 g/ha) | Plant response rating, Goosegrass (goosegrass; POSTEMERGENCE, Rate 125 g/ha) | Plant response rating, Goosegrass (goosegrass; POSTEMERGENCE, Rate 250 g/ha) | Plant response rating, Goosegrass (goosegrass; PREEMERGENCE, Rate 125 g/ha) | Plant response rating, Goosegrass (goosegrass; PREEMERGENCE, Rate 250 g/ha) | Plant response rating, Guineagrass (guineagrass; POSTEMERGENCE, Rate 125 g/ha) | Plant response rating, Guineagrass (guineagrass; POSTEMERGENCE, Rate 250 g/ha) | Plant response rating, Guineagrass (guineagrass; PREEMERGENCE, Rate 125 g/ha) | Plant response rating, Guineagrass (guineagrass; PREEMERGENCE, Rate 250 g/ha) | Plant response rating, Itchgrass (itchgrass; POSTEMERGENCE, Rate 125 g/ha) | Plant response rating, Itchgrass (itchgrass; POSTEMERGENCE, Rate 250 g/ha) | Plant response rating, Itchgrass (itchgrass; PREEMERGENCE, Rate 125 g/ha) | Plant response rating, Itchgrass (itchgrass; PREEMERGENCE, Rate 250 g/ha) | Plant response rating, Johnsongrass (johnsongrass; POSTEMERGENCE, Rate 125 g/ha) | Plant response rating, Johnsongrass (johnsongrass; POSTEMERGENCE, Rate 250 g/ha) | Plant response rating, Johnsongrass (johnsongrass; PREEMERGENCE, Rate 125 g/ha) | Plant response rating, Johnsongrass (johnsongrass; PREEMERGENCE, Rate 250 g/ha) | Plant response rating, Large Crabgrass (large crabgrass; POSTEMERGENCE, Rate 125 g/ha) | Plant response rating, Large Crabgrass (large crabgrass; POSTEMERGENCE, Rate 250 g/ha) | Plant response rating, Large Crabgrass (large crabgrass; PREEMERGENCE, Rate 125 g/ha) | Plant response rating, Large Crabgrass (large crabgrass; PREEMERGENCE, Rate 250 g/ha) | Plant response rating, Peanuts (peanut; POSTEMERGENCE, Rate 125 g/ha) | Plant response rating, Peanuts (peanut; POSTEMERGENCE, Rate 250 g/ha) | Plant response rating, Peanuts (peanut; PREEMERGENCE, Rate 125 g/ha) | Plant response rating, Peanuts (peanut; PREEMERGENCE, Rate 250 g/ha) | Plant response rating, Pit Morninglory (pitted morningglory; POSTEMERGENCE, Rate 125 g/ha) | Plant response rating, Pit Morninglory (pitted morningglory; POSTEMERGENCE, Rate 250 g/ha) | Plant response rating, Pit Morninglory (pitted morningglory; PREEMERGENCE, Rate 125 g/ha) | Plant response rating, Pit Morninglory (pitted morningglory; PREEMERGENCE, Rate 250 g/ha) | Plant response rating, Purple Nutsedge (purple nutsedge; POSTEMERGENCE) | Plant response rating, Purple Nutsedge (purple nutsedge; PREEMERGENCE) | Plant response rating, Smooth Crabgras (smooth crabgrass; POSTEMERGENCE, Rate 125 g/ha) | Plant response rating, Smooth Crabgras (smooth crabgrass; POSTEMERGENCE, Rate 250 g/ha) | Plant response rating, Smooth Crabgras (smooth crabgrass; PREEMERGENCE, Rate 125 g/ha) | Plant response rating, Smooth Crabgras (smooth crabgrass; PREEMERGENCE, Rate 250 g/ha) | Plant response rating, Yellow Nutsedge (yellow nutsedge; POSTEMERGENCE) | Plant response rating, Yellow Nutsedge (yellow nutsedge; PREEMERGENCE)
50: Plant response rating, Cmn Ragweed (common ragweed; POSTEMERGENCE, Rate 125 g/ha)
